Measurements as given in PubChem BioAssay (NCI).
Several values for one entry are separate records, joined by “and”; a condition that tells them apart may be missing. Identical values can stand only once.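 Growth conditions: 96-well plates. Treatment: test compound, 48 hours, 5 concentrations. Analysis: linear interpolation between bracketing concentrations; unreached endpoints set to highest concentration. GI50 marks 50% less growth. TGI denotes the concentration required for complete inhibition of growth.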

Tests used:
Test in all cases: NCI anticancer screen, dose series, 48 h
LXFL 529 NSCLC = system: LXFL 529 NSCLC
DMS 273 small cell lung = system: DMS 273 small cell lung
DMS 114 small cell lung = system: DMS 114 small cell lung
KM20L2 colon = system: KM20L2 colon
SNB-78 CNS = system: SNB-78 CNS
RXF-631 renal = system: RXF-631 renal
HOP-18 NSCLC = system: HOP-18 NSCLC
XF 498 CNS = system: XF 498 CNS
MDA-N = system: MDA-N

Row | SMILES | TGI (LXFL 529 NSCLC) | TGI (DMS 273 small cell lung) [µM] | TGI (DMS 114 small cell lung) [µM] | TGI (KM20L2 colon) | TGI (SNB-78 CNS) [µM] | TGI (RXF-631 renal) [µM] | TGI (HOP-18 NSCLC) | TGI (XF 498 CNS) [µM] | also measured
1 | CCCCc1c2c(nc3c1CC/C(=C\c1ccccc1)C3=O)CCCC2 | 4.16 µM | 8.26 | 27.5 | 12.7 µM | 9.38 | – | – | – | –
2 | CCOC(=O)c1c(/C=N\Nc2ccccc2)nc2ccccc2c1-c1ccccc1 | > 100 µM | > 100 | 98.1 | > 100 µM | > 100 | > 100 | > 100 µM | – | –
3 | CCOC(=O)NC/C=C/CO | > 100 µM | > 100 | > 100 | > 100 µM | > 100 | > 100 | > 100 µM | – | –
4 | O=C1NC2(CCCCC2)C2=C1CCCCC2 | > 100 µM | > 100 | > 100 | – | > 100 | – | > 100 µM | > 100 | –
5 | NC(=O)NC(=O)C1CCC(=O)N1S(=O)(=O)c1ccc(Cl)cc1 (stereo not drawn) | > 100 µM | – | > 100 | > 100 µM | – | > 100 | > 100 µM | > 100 | –
6 | CCCNc1ncnc2c1cnn2C | – | > 100 | > 100 | > 100 µM | > 100 | – | > 100 µM | > 100 | –
7 | COC(=O)N/N=C(\c1nc2ccc(Cl)cc2[nH]c1=O)C(O)c1ccc([N+](=O)[O-])cc1 (stereo not drawn) | > 100 µM | > 100 | > 100 | > 100 µM | > 100 | > 100 | – | – | –
8 | CC1CC2C(=O)N(c3ccccc3)C(=O)C2c2[nH]c3ccccc3c21 (stereo not drawn) | > 100 µM | > 100 | > 100 | – | > 100 | > 100 | – | – | –
9 | Cc1cc2c(=O)cc(-c3ccncc3)oc2c(C(=O)O)c1C | > 100 µM | > 100 | – | > 100 µM | > 100 | > 100 | > 100 µM | > 100 | –
10 | CCCCCCCCCCCCCCCC(=O)NCC(OCC)OCC | > 100 µM | > 100 | > 100 | > 100 µM | > 100 | > 100 | > 100 µM | > 100 | –
11 | Oc1ccc(/C=N/Nc2nnc(N/N=C/c3ccc(O)cc3O)c3ccccc23)c(O)c1 | – | – | – | – | – | – | – | – | TGI (MDA-N): 0.93 µM
12 | COC(=O)CCSC(=O)Nc1ccccc1Cl | > 100 µM | > 100 | > 100 | > 100 µM | > 100 | – | – | – | –
13 | CC(C)C12CCC3(CCC4C(C)(C(=O)O)CCCC4(C)C3C1)C(CN)C2 (stereo not drawn) | – | – | – | – | – | – | – | – | TGI (MDA-N): 84 µM
14 | COc1cccc(OC)c1/C=N\N1C(=O)c2ccccc2C1=O | > 100 µM | 84.6 | 91 | 37.4 µM | > 100 | > 100 | > 100 µM | 86.4 | –
15 | Cc1c2cc[n+](C)cc2c(C)c2c1[nH]c1ccc(Oc3ccccc3)cc12 | 6.13 µM and 6.82 µM | > 100 | – | 23 µM and > 52.3 µM | 3.47 | – | 21.8 µM and 32.5 µM | – | GI50 (DMS 273 small cell lung): 1.15 µM; GI50 (SNB-78 CNS): 0.809 µM and 0.266 µM; GI50 (HOP-18 NSCLC): 2.37 µM and 5.56 µM
16 | CC(=O)OCc1cc2c(s1)C(=O)c1sccc1C2=O | 1 µM | 0.299 | 0.283 | 5.49 µM | 28.3 | – | 0.276 µM | – | –
17 | NC1CC(n2ccc(=O)[nH]c2=O)OC1C(O)CO (stereo not drawn) | > 100 µM | > 100 | > 100 | > 100 µM | – | > 100 | > 100 µM | > 100 | –
18 | O=[N+]([O-])c1cccc(C2=NOC3CCCC23)c1 (stereo not drawn) | > 100 µM | > 100 | > 100 | – | > 100 | – | > 100 µM | – | –
19 | C=CCCC1(CCP(=O)(c2ccccc2)c2ccccc2)OCCO1 | – | – | – | – | – | – | – | – | TGI (MDA-N): > 100 µM
20 | COc1cc([C@H]2c3cc(O)c(OC)cc3C[C@]3(O)[C@@H]2CO[C@@H]3O)ccc1O | – | – | – | – | – | – | – | – | TGI (MDA-N): > 100 µM
21 | O=C(/C=C/c1ccc(OCC(=O)N2CCN(c3ccccc3)CC2)cc1)c1ccccc1 | > 94.2 µM | – | – | > 66 µM | > 100 | – | > 82.7 µM | – | –
22 | Cc1c(C(=O)C/C(=N/NC(=O)CC#N)C(N)=O)[n+](=O)c2ccccc2n1[O-] | > 100 µM | > 100 | 57.8 | > 100 µM | > 100 | > 100 | > 100 µM | > 100 | –

Row | SMILES | TGI (LXFL 529 NSCLC) | TGI (DMS 273 small cell lung) [µM] | TGI (DMS 114 small cell lung) [µM] | TGI (KM20L2 colon) | TGI (SNB-78 CNS) [µM] | TGI (RXF-631 renal) [µM] | TGI (HOP-18 NSCLC) | TGI (XF 498 CNS) [µM] | also measured
23 | Cc1cc2c(SCc3ccccc3Cl)nc(N)nc2nc1C | – | – | – | – | – | – | – | – | TGI (MDA-N): > 100 µM
24 | Cn1nc(-c2ccccc2)c(C(=O)/C=C/c2ccccc2)c(N2CCCC2)c1=O | 34.4 µM | 93.1 | 34.2 | 33.4 µM | – | > 100 | 47.1 µM | 39.9 | –
25 | Cc1cc(C2(c3cc(C)c(O)c4ncccc34)OC(=O)c3ccccc32)c2cccnc2c1O | – | – | – | – | – | – | – | – | TGI (MDA-N): > 100 µM
26 | CN(C)c1ccc(/C=C2\Cc3ccccc3C2=O)cc1Br | > 100 µM | – | > 100 | > 100 µM | > 100 | – | – | 86.2 | –
27 | NC1=NN(c2ccccc2)C(=O)C1/C(=N\NC(=O)c1cc2ccccc2cc1O)C(=O)Nc1ccc(Cl)cc1 (stereo not drawn) | > 100 µM | > 100 | 56.7 | > 100 µM | > 100 | > 100 | > 100 µM | > 100 | –
28 | CC(C)c1nc(Cl)c(Cl)c(Cl)n1 | – | – | – | – | – | – | – | – | TGI (MDA-N): 19 µM
29 | CC1=CC(=O)N2[C@H](OC[C@@H]2C(C)C)O1 | > 100 µM | – | > 100 | > 100 µM | – | > 100 | > 100 µM | > 100 | –
30 | O=c1cccccc1[O-].O=c1cccccc1[O-].O=c1cccccc1[O-].[Dy+3] | – | > 100 | – | > 100 µM | > 100 | – | – | – | GI50 (DMS 273 small cell lung): 9.28 µM; GI50 (KM20L2 colon): 18.4 µM; GI50 (SNB-78 CNS): 15.3 µM
31 | O=C(CO[N+](=O)[O-])OCC(=O)c1ccccc1 | > 100 µM | > 100 | – | > 100 µM | – | > 100 | – | – | –
32 | CC(C)(CCc1nc2ccccc2[nH]1)C(=O)O | – | – | – | – | – | – | – | – | TGI (MDA-N): > 100 µM
33 | CC(C)=NO.CC(C)=NO.CC(C)=NO.CC(C)=NO.[Ti] | > 100 µM | > 100 | > 100 | – | > 100 | > 100 | – | > 100 | GI50 (LXFL 529 NSCLC): > 100 µM; GI50 (RXF-631 renal): > 100 µM; GI50 (DMS 273 small cell lung): > 100 µM; GI50 (DMS 114 small cell lung): > 100 µM; GI50 (XF 498 CNS): > 100 µM; GI50 (SNB-78 CNS): > 100 µM
34 | O=C1OC(c2ccccc2)=N/C1=C\c1ccc(N(CCCl)CCCl)cc1 | – | – | – | – | – | – | – | – | TGI (MDA-N): > 100 µM
35 | O=NNc1nc(-c2ccccn2)nc2ccccc12 | – | – | – | – | – | – | – | – | TGI (MDA-N): > 100 µM
36 | O=C1COc2cc3c(cc2N1)SCC(=O)N3 | > 100 µM | > 100 | > 100 | – | > 100 | > 100 | > 100 µM | > 100 | –
37 | Cc1[nH]n(C(=O)c2ccc(Cl)cc2)c(=O)c1/C=C1\C(O)=CC(=O)c2ccccc21 | > 100 µM | – | > 100 | > 100 µM | > 100 | – | – | > 100 | –
38 | CC(=O)Nc1ccc(C(=O)NN2C(=O)CSC2c2ccccc2)cc1 (stereo not drawn) | – | – | – | – | – | – | – | – | TGI (MDA-N): > 100 µM
39 | CN1C/C(=C\c2ccco2)c2nc(N)nc(-c3ccco3)c2C1 | > 100 µM | > 100 | > 100 | > 100 µM | – | – | – | 90.2 | –
40 | CCOC(=O)Oc1ccc2[nH]c3c(C)cc(N)c(C)c3c2c1 | – | > 100 | > 100 | – | > 100 | – | > 100 µM | > 100 | –
41 | CCOC(=O)C1C(=O)C(=O)N2CCc3c([nH]c4ccccc34)C12 (stereo not drawn) | > 100 µM | – | > 100 | > 100 µM | – | – | – | – | –
42 | COc1cc(COC(=O)NC(Cc2cccs2)C(=O)O)c([N+](=O)[O-])cc1OC (stereo not drawn) | – | – | – | – | – | – | – | – | TGI (MDA-N): > 100 µM
43 | Cc1c(N)nc(C2CC(=O)N2CC(N)C(N)=O)nc1C(=O)NC(C(=O)NC(C)C(O)C(C)C(=O)NC(C(=O)NCCc1nc(-c2nc(C(=O)NCCNCC(C)O)cs2)cs1)C(C)O)C(OC1OC(CO)C(O)C(O)C1OC1OC(CO)C(O)C(OC(N)=O)C1O)c1cnc[nH]1 (stereo not drawn) | > 100 µM | 12 | 4.47 | > 100 µM | > 100 | – | > 100 µM | > 22.4 | TGI (MDA-N): > 50 µM
44 | Nc1ccc2ncc(Nc3ccc(Cl)c(Cl)c3)nc2c1 | > 100 µM | 49.5 | 42.1 | > 100 µM | 74.1 | – | – | 60.8 | –
